Reference: patent US8603460B2, “Method of making a Lactobacillus reuteri with increased acid tolerance” (Brogaia AB, priority 2006, dated 2013)
Converted amounts (≈) assume the structure as drawn. Read-outs that look alike come from different tables or passages of the source.

Key:
L. reuteri ATCC 55730 [1] = experiment: MIC on MRS plates containing lincomycin or clindamycin; assay type: cell-based, Lactobacillus reuteri; details: Limosilactobacillus reuteri, ATCC55730, strain ATCC 55730, anaerobic, 37° C., 24 h
Protocol: (§1) The bacteria were grown in MRS broth for 16 h at 37° C. […] After adsorption of the drops, the plates were incubated in anaerobic atmosphere at 37° C. for 24 h. The MIC was defined as the lowest antibiotic concentration for which there was no visible bacterial growth.

L. reuteri DSM 17686 [2] = experiment: as above; assay type: cell-based, Lactobacillus reuteri; details: 37° C., 24 h
Protocol: as §1

L. reuteri DSM 17938 [3] = experiment: as above; assay type: cell-based, Lactobacillus reuteri; details: strain DSM 17938, anaerobic, 37° C.
Protocol: as §1

L. reuteri DSM 20016 = experiment: as above; assay type: cell-based, Lactobacillus reuteri; details: Limosilactobacillus reuteri, DSM20016, strain DSM 20016 (negative control), anaerobic, 37° C., 24 h
Protocol: as §1

1063 = experiment: as above; assay type: cell-based; details: strain 1063, anaerobic, 37° C., 24 h
Protocol: as §1

L. reuteri ATCC 55730 [4] = experiment: MIC to tetracycline with Etest; assay type: cell-based, Lactobacillus reuteri; details: Limosilactobacillus reuteri, ATCC55730; strain ATCC 55730; MRS agar; read-out: MIC to tetracycline (E-test)
Protocol: (§2) The bacteria were grown in MRS broth for 16 h at 37° C. After dilution to 10^5 cfu ml^−1, 1 μl of each bacterial strain was spotted on MRS plates containing lincomycin or clindamycin (concentrations 0, 0.125, 0.25, 0.5, 1, 2, 4, 8 and 16 μg ml^−1). After adsorption of the drops, the plates were incubated in anaerobic atmosphere at 37° C. for 24 h. The MIC was defined as the lowest antibiotic concentration for which there was no visible bacterial growth. MICs to tetracycline were tested with Etest (AB Biodisk) on bacteria growing on MRS agar (Oxoid) plates according to the instructions from the manufacturer.

L. reuteri DSM 17686 [5] = experiment: MIC to tetracycline with Etest; assay type: cell-based, Lactobacillus reuteri; details: strain DSM 17686; MRS agar
Protocol: as §2

L. reuteri DSM 17938 [6] = experiment: MIC to tetracycline with Etest; assay type: cell-based, Lactobacillus reuteri; details: strain DSM 17938; MRS agar
Protocol: as §2

[7] = Limosilactobacillus reuteri, DSM17686, strain DSM 17686, anaerobic, read-out: MIC
[8] = Limosilactobacillus reuteri, DSM17938, 24 h, read-out: MIC

MIC (L. reuteri ATCC 55730 [1])	MIC (L. reuteri DSM 17686 [2]; [7])	MIC (L. reuteri DSM 17938 [3]; [8])	MIC (L. reuteri DSM 20016)	MIC 1063	MIC (L. reuteri DSM 17686 [2]; strain DSM 17686, anaerobic)	MIC (L. reuteri DSM 17938 [3]; 24 h)	Structure (SMILES)	MIC (L. reuteri ATCC 55730 [4])	MIC to tetracycline (E-test) (L. reuteri DSM 17686 [5])	MIC to tetracycline (E-test) (L. reuteri DSM 17938 [6])
< 0.125 µg/mL	< 0.125 µg/mL	< 0.125 µg/mL	< 0.125 µg/mL	> 16 µg/mL	–	–	CCC[C@@H]1C[C@@H](C(=O)N[C@@H]([C@H]2O[C@H](SC)[C@H](O)[C@@H](O)[C@H]2O)[C@H](C)Cl)N(C)C1 [clindamycin]	–	–	–
> 16 µg/mL	> 16 µg/mL	0.25 µg/mL (≈ 0.615 µM)	0.25 µg/mL (≈ 0.615 µM)	> 16 µg/mL	>16 µg/mL	0.5 µg/mL (≈ 1.23 µM)	CCC[C@@H]1C[C@@H](C(=O)N[C@@H]([C@H]2O[C@H](SC)[C@H](O)[C@@H](O)[C@H]2O)[C@@H](C)O)N(C)C1 [lincomycin]	–	–	–
–	–	–	–	–	–	–	CN(C)[C@@H]1C(O)=C(C(N)=O)C(=O)[C@@]2(O)C(O)=C3C(=O)c4c(O)cccc4[C@@](C)(O)[C@H]3C[C@@H]12 [tetracycline]	> 256 µg/mL	12-16 μml-1	12-16 μml-1
